Reference: paper PMC7587528
Entries after “also recorded” stand apart in the source; their conditions may differ. Read-outs that look alike come from different tables or passages of the source.

How the values were obtained:
apo-myoglobin = settings: in solution, ref [23], cited from earlier work
Text: In solution, the bi-molecular association of the heme group to apo-myoglobin is thought to follow a bimodal process. Association of heme to (partially unfolded) apo-myoglobin is fast (kA ~10^8 M^−^1·s^−^1), followed by a slower structural re-arrangement (k ~500 s^−^1) to generate natively-folded holo-myoglobin (at pH 7) in which the iron atom of the heme group is then primarily coordinated by His93 [23]. Accordingly, in-solution affinity of at least partially unfolded apo-myoglobin to the heme prosthetic group has been characterized as rather strong and the complex consisting of both compone ...

[1] = system: antiTroponin I antibody [MF4]; test: ITEM-TWO nanoESI-MS collision induced dissociation: Troponin I peptide-antiTroponin I antibody complex (gas phase); type: binding
Text: At last, we performed ITEM-TWO experiments with an epitope peptide that was derived from human cardiac Troponin I (Tn I) against which was directed a monoclonal antiTroponin I antibody (antiTn I). Generation of the immune complex in solution and subsequent electrospraying of the entire mixture started data acquisition with the respective instrument settings as mentioned (for details see Methods section). […] Again, upon raising the collision cell voltage difference there appeared isotopically resolved ions in the low m/z range of the mass spectrum for the Troponin I epitope peptide (see insert in Figure 7) which were recorded with high mass accuracy (7 ppm).
Again, plotting norm (educts) vs. ΔCV produced a sigmoidal shaped course which represented the dependence of educt intensity on ΔCV following Boltzmann characteristics (Supplemental Figure S7). The y-axis values on the tangent line, i.e., norm (educts) , enabled to calculate ln kmg# values. […] This Arrhenius plot again provided lnA (pre-exponential factor) as the intercept with the y-axis and − ΔGmg#/R as the slope of the line (Supplemental Figure S8). In the same manner as described above, the value for km0g# was calculated. Similarly, by applying the Eyring-Polanyi equation KD m0g# was determined.
The human cardiac Troponin I epitope peptide (ENREVGDWRKNIDAL; peptides&elephants, Hennigsdorf, Germany) was obtained as lyophilized powder. The peptide was dissolved in 200 mM ammonium acetate buffer, pH 7, to obtain a peptide concentration of 1.31 µg/µL. The antiTroponin I antibody [MF4] (product code ab38210; Abcam, Cambridge, UK) was obtained dissolved in PBS buffer, pH 7.4. […] Then 200 mM ammonium acetate buffer, pH 7, were added to reach a volume of 500 µL. The solution was centrifuged at 13,000 rpm for 10 min. The filtrate was discarded. To the retentate on the filter (ca. 30 µL) 470 µL of 200 mM ammonium acetate buffer, pH 7, were added to reach a total volume of 500 µL. The solution was centrifuged again. This centrifugation/re-filling procedure was repeated eight times. After the last spinning, the filter unit was inverted into a new vial and was centrifuged at 4500 rpm for 5 min to collect the retentate (52 µL). Protein concentration was determined to be 0.33 µg/µL using the Qubit^TM 2.0 Fluorometer (Carlsbad, CA, USA) assay. […] The immune complex-containing mixture was incubated at room temperature for at least 1 h. For each measurement, 3 µL of antibody-peptide complex-containing solution were loaded into nanoESI capillaries using a microloader pipette tip (Eppendorf, Hamburg, Germany).
The m/z axis was calibrated using 1 mg/mL sodium iodide dissolved in an isopropanol/water solution (50:50, v/v). […]

[2] = system: holo-myoglobin (apo-myoglobin—heme complex); test: ITEM-TWO nanoESI-MS collision induced dissociation: heme loss from holo-myoglobin (gas phase); type: binding
Protocol: The mass spectral data obtained from electrospraying myoglobin (the holo-myoglobin complex consists of apo-myoglobin plus heme) were collected by following the ITEM-TWO protocol (see Methods section for in-solution handling and data acquisition steps). The ESI mass spectrum of myoglobin (Figure 4) provides an ion series of multiply charged ions from which a mean charge state of 8.1+ and an average mass of 17,566.95 ± 0.46 Da is calculated for holo-myoglobin. After having electrosprayed the myoglobin solution, and upon having switched on the collision gas and having increased the collision cell voltage difference ( ΔCV ) in a step-wise manner (5–20 V/step), dissociation of holo-myoglobin complexes caused appearance of complex-released heme ions (ligands) in the low mass ranges of the mass spectra (Supplemental Table S1). […] The m/z value of the ion that appeared in the low mass range ([heme]+) was 616.21 and corresponded precisely to the calculated values for singly protonated [heme]+ (m/z 616.18), resulting in a mass accuracy of 48 ppm.
Mean charge states of holo-myoglobin ions (m+), apo-myoglobin (n+) and heme (p+) as well as apex heights (holo-myoglobin ions (h, educts), heme ions (i, product), and apo-myoglobin ions (j, product) were extracted (Supplemental Table S2) from the triplicate measurements, averaged and normalized. For each ΔCV setting one spectrum was generated (Figure 4) and analyzed semi-quantitatively by determining Gaussian fits for all molecular/supra-molecular ion species.
All the y-values from the tangent line of the steep decline that fall within the 2dx interval around ΔCV50 are used for the calculation of ln kmg# values which are then used in the Arrhenius plot (Supplemental Figure S2). […] Then, ΔGm0g# is calculated using the van´t Hoff equation (Table 1).
A stock solution was first prepared by dissolving 5.22 mg of myoglobin (lot # 60K7007, Sigma-Aldrich, Steinheim, Germany) in 1 mL of 200 mM ammonium acetate. […] The concentration of the resulting solution was determined to be 0.5 µg/µL using a QubitTM 2.0 Fluorometer (Carlsbad, California, USA). […]

holo-myoglobin = settings: gas phase, ref [19], cited from earlier work
Text: In that investigation, heme dissociation kinetics was studied (i) by spraying solutions with pH 5 and (ii) by looking at selected charge state pairs (e.g., 8+ protonated holo-myoglobin and 7+ charged apo-myoglobin). Activation energies ranged from 73 kJ/mol to 106 ...

[3] = "neutral and resting" complex, gas phase, Arrhenius extrapolation to 298 K (ΔCV = 0)

C=CC1=C(C)c2cc3[n-]c(cc4[n-]c(cc5nc(cc1n2)C(C)=C5C=C)c(C)c4CCC(=O)O)c(CCC(=O)O)c3C.[Fe+2] [heme]
k of slower structural re-arrangement to natively-folded holo-myoglobin (apo-myoglobin; pH 7): ~ 500 s^−^1 | kA association of heme to (partially unfolded) apo-myoglobin (apo-myoglobin): ~ 10^8 M^−^1·s^−^1

DYKDDDDK [FLAG]
km0g# apparent rate constant of dissociation (antiFLAG M2 antibody; [3]): 7.9 × 10 ^10 1/s | ∆CV50 (antiFLAG M2 antibody; collision cell voltage difference at center of Boltzmann fit of normalized educt intensity, peptide to antibody 2.2:1, 200 mM ammonium acetate pH 7, three determinations): 89.0 V | dx (antiFLAG M2 antibody; half of x-axis interval (2dx) of steepest educt decline in Boltzmann fit, three determinations): 19.8 V | binding stoichiometry, peptides bound per antibody (antiFLAG M2 antibody; high mass range ion triplets, charge states 21+ to 27+, mixture of seven peptides, listed as FLAG peptide): one bound FLAG peptide; also recorded: two bound FLAG peptides | peptide released from antiFLAG antibody complex (epitope identification) (antiFLAG M2 antibody; mixture of seven peptides with antiFLAG antibody, 200 mM ammonium acetate pH 7, raised collision cell voltage): only released the FLAG peptide

ENREVGDWRKNIDAL [troponin I, peptides&elephants)]
km0g# apparent rate constant of dissociation [1, 3]: 2.2 × 10 ^12 1/s | ∆CV50 ([1]; collision cell voltage difference at center of Boltzmann fit of normalized educt intensity, Synapt G2S, peptide to antibody 2.2:1, 200 mM ammonium acetate pH 7, two determinations): 26.4 V | dx ([1]; half of x-axis interval (2dx) of steepest educt decline in Boltzmann fit, Synapt G2S, two determinations): 15.9 V | binding stoichiometry, peptides bound per antibody ([1]; high mass range ion triplets, charge states 23+ to 28+, listed as Troponin I epitope peptide): one bound Troponin I epitope peptide; also recorded: two bound Troponin I epitope peptides

B1: myoglobin: holo-myoglobin complex consists of apo-myoglobin plus heme; lot # 60K7007, Sigma-Aldrich (protein, UniProt P68082 2-154, looked up)
Myoglobin: GLSDGEWQQVLNVWGKVEADIAGHGQEVLIRLFTGHPETLEKFDKFKHLKTEAEMKASEDLKKHGTVVLTALGGILKKKGHHEAELKPLAQSHATKHKIPIKYLEFISDAIIHVLHSKHPGDFGADAQGAMTKALELFRNDIAAKYKELGFQG
modifications: heme
notes: holo-myoglobin complex consists of apo-myoglobin plus heme; lot # 60K7007, Sigma-Aldrich
km0g# apparent rate constant of dissociation [2, 3]: 5.1 × 10 ^9 1/s | ∆CV50 ([2]; collision cell voltage difference at center of Boltzmann fit of normalized educt intensity, Q-TOF 2, 200 mM ammonium acetate pH 7, triplicate): 44.0 V | dx ([2]; half of x-axis interval (2dx) of steepest educt decline in Boltzmann fit, Q-TOF 2, triplicate): 8.5 V | activation energy for heme dissociation (holo-myoglobin; 9+ protonated holo-myoglobin): 22 kcal/mol | activation energy for heme dissociation (holo-myoglobin; 10+ protonated holo-myoglobin): 20.3 kcal/mol
